Results published in BindingDB's records for patent US8987287 (Purdue Pharma, 2015).

How the values were obtained:
Mu-type opioid receptor = Mu-type opioid receptor (Homo sapiens, UniProt P35372); test: Radioligand Dose-Displacement Binding Assay; conditions: pH 7.4; 50 °C
Experimental: mu-Opioid Receptor Binding Assay Procedures: Radioligand dose-displacement binding assays for mu-opioid receptors used 0.3 nM [3H]-diprenorphine (Perkin Elmer, Shelton, Conn.), with […]/well in a final volume of 500 ul binding buffer (10 mM MgCl2, 1 mM EDTA, 5% DMSO, 50 mM HEPES, pH 7.4). Reactions were carried out in the absence or presence of increasing concentrations of unlabeled naloxone. All reactions were conducted in 96-deep well polypropylene plates for 2 hours at room temperature. Binding reactions were terminated by rapid filtration onto 96-well Unifilter GF/C filter plates (Perkin Elmer, Shelton, Conn.), presoaked in 0.5% polyethylenimine using a 96-well tissue harvester (Perkin Elmer, Shelton, Conn.) followed by performing three filtration washes with 500 ul of ice-cold binding buffer. Filter plates were subsequently dried at 50 C. for 2-3 hours. BetaScint scintillation cocktail (Perkin Elmer, Shelton, Conn.) was added (50 ul/well).

[1] = biological target: Kappa-type opioid receptor (Homo sapiens, UniProt P41145); test: Radioligand Dose-Displacement Binding Assay; conditions: pH 7.4; 25 °C
Kappa-type opioid receptor, sequence (P41145 whole entry): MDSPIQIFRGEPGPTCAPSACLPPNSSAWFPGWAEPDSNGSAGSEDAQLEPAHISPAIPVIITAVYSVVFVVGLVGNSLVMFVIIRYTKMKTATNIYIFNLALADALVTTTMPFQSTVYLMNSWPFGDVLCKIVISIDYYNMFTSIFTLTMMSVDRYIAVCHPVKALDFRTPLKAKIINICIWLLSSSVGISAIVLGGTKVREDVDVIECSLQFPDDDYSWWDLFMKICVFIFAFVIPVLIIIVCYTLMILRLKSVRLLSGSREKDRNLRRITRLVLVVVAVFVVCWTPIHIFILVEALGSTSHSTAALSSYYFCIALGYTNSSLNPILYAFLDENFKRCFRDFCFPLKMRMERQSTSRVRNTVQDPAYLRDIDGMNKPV
Experimental: Radioligand dose displacement assays used 0.4 nM [3H]-U69,593 (GE Healthcare, Piscataway, N.J.; 40 Ci/mmole) with 15 ug membrane protein (recombinant kippa opioid receptor expressed in HEK 293 cells; in-house prep) in a final volume of 200 ul binding buffer (5% DMSO, 50 mM Trizma base, pH 7.4). Non-specific binding was determined in the presence of 10 uM unlabeled naloxone or U69,593. All reactions were performed in 96-well polypropylene plates for 1 hour at a temperature of about 25 C. Binding reactions were terminated by rapid filtration onto 96-well Unifilter GF/C filter plates (Perkin Elmer, Shelton, Conn.) presoaked in 0.5% polyethylenimine (Sigma). Harvesting was performed using a 96-well tissue harvester (Perkin Elmer, Shelton, Conn.) followed by five filtration washes with 200 ul ice-cold binding buffer. Filter plates were subsequently dried at 50 C. for 1-2 hours. Fifty ul/well scintillation cocktail (Perkin Elmer, Shelton, Conn.) was added.

Mu-type opioid receptor, sequence (P35372 whole entry): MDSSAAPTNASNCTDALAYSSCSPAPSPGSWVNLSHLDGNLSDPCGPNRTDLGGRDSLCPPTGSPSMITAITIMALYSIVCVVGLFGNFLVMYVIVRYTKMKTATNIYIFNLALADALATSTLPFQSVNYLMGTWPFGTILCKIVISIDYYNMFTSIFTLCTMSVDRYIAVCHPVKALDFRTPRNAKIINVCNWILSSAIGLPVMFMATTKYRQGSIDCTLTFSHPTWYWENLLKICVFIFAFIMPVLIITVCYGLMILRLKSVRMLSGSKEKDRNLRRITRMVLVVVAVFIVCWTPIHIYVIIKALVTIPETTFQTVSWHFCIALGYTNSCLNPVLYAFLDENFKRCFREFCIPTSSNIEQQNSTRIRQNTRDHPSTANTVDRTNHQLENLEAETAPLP

`COc1ccc2c(c1)[C@]13CCN(C)[C@H](C2)[C@]1(O)CC[C@@]1(C3)NC(=O)NC1=O` [US8987287, 9] showed a Ki (Mu-type opioid receptor) of 3.88 µM and a Ki [1] greater than 20 µM.
